# Experimental data from the OPERA property sets (Mansouri et al. 2018).
SMILES,solubility (25 °C) [mM],other results
O=C(O)c1ccccc1Cl,13.3,
CN1C2CCC1CC(OC(=O)c1ccccc1)C2 (stereo not drawn),6.93,
CCN1C[C@]2(COC)[C@H](O)C[C@H](OC)[C@]34C1[C@H]([C@H](OC)[C@H]23)[C@]1(OC(C)=O)[C@H]2[C@@H](OC(=O)c3ccccc3)[C@](O)(C[C@H]24)[C@@H](OC)[C@@H]1O,0.48,
C=CC=O,3780,
CCCCCCCCCCC(C(=O)O)C(=O)O,0.102,
O=C1c2cccc(S(=O)(=O)O)c2C(=O)c2cccc(S(=O)(=O)O)c21,1810,
Nc1ccc(N)cc1,,solubility (23 °C): 342 mM
O=Cc1ccccc1[N+](=O)[O-],15.4,
CC(=O)Oc1ccc2c3c1O[C@H]1[C@@H](OC(C)=O)C=C[C@H]4[C@@H](C2)N(C)CC[C@@]341,1.61,
Cc1cc(O)c2c(O)c3c(O)cccc3cc2c1,0.874,
O=C1NS(=O)(=O)c2ccccc21,21.8,
O=C1CC2CC[C@H]1C2,,solubility (20 °C): 17.5 mM
CC[C@H]1C[N@@]2CC[C@H]1C[C@H]2[C@H](O)c1ccnc2ccc(OC)cc12,0.888,
O=Cc1cccc([N+](=O)[O-])c1,10.8,
NC(N)=S,1870,
Nc1cccc([N+](=O)[O-])c1,,solubility (24 °C): 8.69 mM
O=C1C[C@@H]2OCC=C3CN4CC[C@]56c7ccccc7N1[C@H]5[C@H]2[C@H]3C[C@H]46,0.478,
NC(=O)c1ccccc1,111,
O=C(O)c1cccc(Cl)c1,2.87,
CCN(CC)C(=O)CCC(=O)O,161,
O=C1c2cccc(S(=O)(=O)O)c2C(=O)c2c1cccc2S(=O)(=O)O,18100,
O=C1c2c(O)cccc2[C@H]([C@@H]2O[C@H](CO)[C@@H](O)[C@H](O)[C@H]2O)c2cc(CO)cc(O)c21,,solubility (20 °C): 19.8 mM
O=[N+]([O-])OCC(CO[N+](=O)[O-])O[N+](=O)[O-],,solubility (20 °C): 6.08 mM
